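1) Cells in 96-well plates. 2) Compound, 48 h, 5 concentrations. 3) Linear interpolation between surrounding doses. 4) Unreached endpoint = highest concentration. GI50 marks 50% less growth. Definition used: TGI = concentration required for complete inhibition of growth.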
Legend:
Assay in all cases: inhibition of tumour cell growth, NCI panel, 48 h
A549 NSCLC = test system: A549 NSCLC
COLO 205 colon = test system: COLO 205 colon
HCC-2998 colon = test system: HCC-2998 colon
HCT-116 colon = test system: HCT-116 colon
HOP-92 NSCLC = test system: HOP-92 NSCLC
IGROV1 ovarian = test system: IGROV1 ovarian
KM12 colon = test system: KM12 colon
SK-MEL-28 melanoma = test system: SK-MEL-28 melanoma
UO-31 renal = test system: UO-31 renal
SF-295 CNS = test system: SF-295 CNS

Structure (SMILES) | TGI (A549 NSCLC) [µM] | TGI (COLO 205 colon) [µM] | TGI (HCC-2998 colon) [µM] | TGI (HCT-116 colon) [µM] | TGI (HOP-92 NSCLC) [µM] | TGI (IGROV1 ovarian) [µM] | TGI (KM12 colon) [µM] | TGI (SK-MEL-28 melanoma) [µM] | TGI (UO-31 renal) [µM] | TGI (SF-295 CNS) [µM] | GI50 (A549 NSCLC) [µM] | GI50 (COLO 205 colon) [µM] | GI50 (HCC-2998 colon) [µM] | GI50 (HCT-116 colon) [µM] | GI50 (IGROV1 ovarian) [µM] | GI50 (KM12 colon) [µM] | GI50 (SF-295 CNS) [µM] | GI50 (UO-31 renal) [µM] | GI50 (SK-MEL-28 melanoma) [µM] | GI50 (HOP-92 NSCLC) [µM]
c1ccc(-n2cnnc2-c2nsc3ccccc23)cc1 | > 100 | > 100 | > 100 | > 100 | > 100 | > 100 | > 100 | > 100 | > 100 |  |  |  |  |  |  |  |  |  |  | 
C=C1C(=O)OC2/C=C(\C)C(=O)CC3OC(C)(C)OC3(C)CC(OC(=O)/C(C)=C/C)C12 (stereo unspecified) | > 100 | > 59.7 | 34.9 | > 44.1 | 38.1 | 32.3 | 38 | 86.5 | 29.3 | 98.2 |  |  |  |  |  |  |  |  |  | 
CCN(CC)C(=S)SC(=S)N(CC)CC | > 100 | 45 | > 100 | > 58.3 | > 87.3 | > 100 | 64.2 | > 100 | > 76.3 | > 100 |  |  |  |  |  |  |  |  |  | 
Cc1ccc(P(c2ccc(C)cc2)c2ccc(C)cc2)cc1 | > 100 | 44.6 | 36 | 28.2 | 20.8 | 53.6 | 60.9 | 56 | 4.54 | > 100 |  |  |  |  |  |  |  |  |  | 
COc1cc(C(C)(C)C)cc(OC)c1C(O)(c1c(OC)cc(C(C)(C)C)cc1OC)c1c(OC)cc(C(C)(C)C)cc1OC | 1.23 | 0.34 | 1.36 | 0.901 |  | 0.873 | 1.05 |  | 0.745 | 0.479 | 0.324 | 0.188 | 0.429 | 0.249 | 0.316 | 0.349 | 0.221 | 0.241 |  | 
Nc1nc(N)c2ncn(-c3ccc(Cl)c(Cl)c3)c2n1 | > 100 | 28.7 | > 100 | 40.3 | > 100 | 64.6 | 97.5 | > 100 | 59.2 | 69.6 |  |  |  |  |  |  |  |  |  | 
C=C(CN(C)C)C(=O)c1ccc(C)cc1C | 63.1 | 11.3 | 31.5 | 13 | 10.4 | 17.7 | 31 | 20.4 | 22.3 | 31.6 |  |  |  |  |  |  |  |  |  | 
Nc1ccc(OCC(O)N2C(=O)c3ccccc3C2=O)cc1 (stereo unspecified) | > 100 | > 100 | > 100 | > 100 |  | > 100 |  | > 100 | > 100 | > 100 |  |  |  |  |  |  |  |  |  | 
CCN=C=NCCCN(C)C | > 100 | > 100 |  | > 100 | > 100 | > 100 | > 100 | > 100 | > 100 | > 100 |  |  |  |  |  |  |  |  |  | 
CN1CCC(C(=O)NNc2ccccc2)CC1 | > 86.8 | 10.2 | 12.6 | > 100 | > 100 | > 100 | > 77.8 | > 88.1 | 24.4 | 33 |  |  |  |  |  |  |  |  |  | 
N=C(N)c1ccc(-c2ccc(-c3cncc4ccccc34)s2)cc1F |  | 3.94 |  |  |  |  | 3.51 | 3.41 | 3.41 | 3.27 |  | 1.87 |  |  |  | 1.83 | 1.72 | 1.77 | 1.75 | 
COc1ccc2[nH]c3c([N+](=O)[O-])ccc(Cl)c3c(=O)c2c1 | > 100 | 32.7 | > 71.2 | 27.4 | 29.7 | 18.6 | > 73.4 | 98.1 | 35.5 | > 100 |  |  |  |  |  |  |  |  |  | 
C=C(C)C(=O)OC1C(C(C)CCCO)=C(CO)CC2OC(=O)C(=C)C21 (stereo unspecified) | 63.7 | 29.3 | 31.8 | 32.2 | 44.2 | 38.8 | 27.7 | 49.1 |  | > 100 |  |  |  |  |  |  |  |  |  | 
OC(Cc1ccccc1)(Cc1ccccc1)c1ccccc1 | 46.3 |  |  | 35.8 | 32.2 | 33.7 | 33.3 | 47.3 | 32.4 | 34.9 |  |  |  |  |  |  |  |  |  | 
C=C1CC23CCC4C(C)(C(=O)O)CCCC4(C)C2CCC1C3 (stereo unspecified) | > 100 | 39.5 | 78.6 | > 100 | 94.3 | 94.9 | > 100 | > 100 | 88.2 | > 100 |  |  |  |  |  |  |  |  |  | 
COC1/C=C\OC2(C)Oc3c(C)c(O)c4c(O)c(c(/C=N\OCCCc5ccccc5)c(O)c4c3C2=O)NC(=O)/C(C)=C\C=C/C(C)C(O)C(C)C(O)C(C)C(OC(C)=O)C1C (stereo unspecified) | 12.9 | 4.12 | 25.6 | 5.26 | 6.26 | 6.74 | 14 | 4.65 |  | 16.3 |  |  |  |  |  |  |  |  |  | 
CC(C)(C)C1(c2ccc(C3(c4ccccc4)Oc4ccccc4S3)[nH]2)Oc2ccccc2S1 (stereo unspecified) | > 100 |  | > 100 | > 100 | > 100 | > 100 |  |  | > 100 | > 100 |  |  |  |  |  |  |  |  |  | 
O=[N+]([O-])c1ccc(/C=N\Nc2ccc([N+](=O)[O-])cn2)cc1 | > 100 | > 100 | > 100 | > 100 | > 100 | > 100 | > 100 | > 100 | > 100 | > 100 |  |  |  |  |  |  |  |  |  | 
C[C@H](C(=O)N[C@@H](Cc1ccc(-c2ccccc2)cc1)C(=O)NC1CC(C)(C)N(C)C(C)(C)C1)c1ccc(-c2ccccc2)c(F)c1 |  | 2.87 | 3.42 |  | 2.7 |  |  | 3.18 | 2.64 |  |  | 1.37 | 1.74 |  |  |  |  | 1.27 | 1.67 | 1.26
O=S(=O)(O)c1cc(N=Nc2cc(S(=O)(=O)O)c3ccccc3c2O)ccc1/C=C/c1ccc(N=Nc2cc(S(=O)(=O)O)c3ccccc3c2O)cc1S(=O)(=O)O | > 1000 | > 380 | > 1000 | > 433 | > 463 | > 873 | > 365 | > 1000 | > 527 | > 731 |  |  | > 1000 |  |  |  |  |  |  | > 262
CC(C)=CCc1c(O)ccc2c1OC1c3ccc(O)c(CC=C(C)C)c3OCC21 (stereo unspecified) | 26.5 | 33 | 26 | 18.3 | > 100 | 25.8 | 33.7 | 28.7 | 24 | 24.3 |  |  |  |  |  |  |  |  |  | 
C[N+]1(C)CCOC(O)(c2ccccc2)C1 (stereo unspecified) | > 100 | > 100 |  | > 100 | > 100 | > 100 | > 100 | > 100 | > 100 | > 100 |  |  |  |  |  |  |  |  |  | 
C=C(C)C1CC2=C(O1)C(=O)c1ccccc1C2=O (stereo unspecified) | 42.3 | 37.4 | 39.3 |  | 30.8 | 36.1 | 33.4 | 34.2 |  |  |  |  |  |  |  |  |  |  |  | 
C=C(C)[C@@H]1CC[C@]2(C(=O)Nc3ccccn3)CC[C@]3(C)[C@H](CC[C@@H]4[C@@]5(C)CCCNC(C)(C)[C@@H]5CC[C@]43C)[C@@H]12 |  |  |  |  | 7.64 |  | 3.36 | 3.13 | 2.8 | 3.07 |  |  |  |  |  | 1.82 | 1.68 | 1.44 | 1.69 | 2.06
C=C1C(=O)CCC1C(=O)O (stereo unspecified) | > 100 | > 100 | > 100 | > 100 |  | > 100 | > 100 | > 100 | > 100 | > 100 |  |  |  |  |  |  |  |  |  | 
O=Nc1ccc(O)c2ncccc12 | 30.4 | 30.6 | 31.1 | 3.04 | 11.9 | 18.9 | 20.4 | 17.3 | 13.5 | 36 |  |  |  |  |  |  |  |  |  | 
C/C1=N\NC(=O)c2ccccc2C(=O)N/N=C(\C)c2cccc1n2.O=[N+]([O-])[O-].[Zn+2] | > 100 | > 100 | > 100 | > 100 |  | > 100 | > 100 | > 100 | > 100 | > 100 |  |  |  |  |  |  |  |  |  | 
Nc1cc(S(=O)(=O)O)cc2cc(S(=O)(=O)O)c(N=Nc3ccc(-c4ccc(N=Nc5c(S(=O)(=O)O)cc6cc(S(=O)(=O)O)cc(N)c6c5O)cc4)cc3)c(O)c12 | > 100 | > 100 | > 100 | > 100 | > 100 | > 100 | > 100 | > 100 | > 100 | > 100 |  |  |  |  |  |  |  |  |  | 

— PubChem BioAssay (NCI)
